Data as given in ChEMBL document CHEMBL1777769, “Synthesis and characterisation of a novel tubulin-directed DO3A-colchicine conjugate with potential theranostic features” (Bioorg Med Chem Lett, 2011).
Calls of active or inactive are those of the source. The rule behind the calls is not given here.

Key:
Assay type in all cases: functional, cell-based
OVCAR-3 [1] = test: Cytotoxicity against human OVCAR3 cells assessed as cell death after 24 hrs by trypan blue exclusion assay
OVCAR-3 [2] = test: Cytotoxicity against human OVCAR3 cells assessed as change in cell shape after 24 hrs by trypan blue exclusion assay
OVCAR-3 [3] = test: Cytotoxicity against human OVCAR3 cells assessed as reduction in viable cells after 24 hrs by trypan blue exclusion assay

Row | Structure (SMILES) | Activity (OVCAR-3 [1]) | Activity (OVCAR-3 [2]) | Activity (OVCAR-3 [3])
1 | COc1cc2c(c(OC)c1OC)-c1ccc(OC)c(=O)cc1[C@@H](NC(C)=O)CC2 | Active | Active | Active
2 | COc1cc2c(c(OC)c1OC)-c1ccc(OC)c(=O)cc1[C@@H](NC(=O)CN1CCN(CC(=O)O)CCN(CC(=O)O)CCN(CC(=O)O)CC1)CC2 | Active | Active | 
